Broadly, the EC50 is the concentration that produces a half-maximal response. The term Kd denotes the equilibrium constant for the complex coming apart.

The record followed here is patent publication US20230054976A1, “METHODS FOR INHIBITION OF ALPHA-SYNUCLEIN mRNA USING SMALL MOLECULES” (The Scripps Research Institute, priority 2019, published 2023).

The structures appear in SMILES notation.

Data set [1] has as its system SH-SY5Y cells transcriptome. As to the kind of experiment: RNA-Seq transcriptome-wide differential expression. To be noted: 48 h; Synucleozid 1.5 μM vs vehicle; siRNA 0.1 μM vs scrambled control. The class given is cell-based, human. Here is the method: RNA-Seq. SH-SY5Y cells were treated or transfected as described above for 48 h with Synucleozid (1.5 μM) and siRNA (0.1 μM). Total RNA was extracted using a miRNeasy Mini Kit (Qiagen, as described above) with on-column DNase I treatment. Qubit 2.0 Fluorometer (Invitrogen) was used for total RNA quantification. Quality of total RNA was assessed by using an Agilent Technologies 2100 Bioanalyzer RNA nano chip. Samples which have RNA integrity number >8.0 were used in future experiments. Probes provided by the NEBNext rRNA depletion module (catalog no.: E6310L, New England Biosciences) were used to deplete rRNA on approximate 500 ng of total RNA according to the manufacturer's recommendations. Library preparation was done with NEBNext Ultra 11 Directional RNA kit (catalog no.: E7760, New England Biosciences) according to the manufacturer's instructions. RNA samples were heated to 94° C. and simultaneously chemically fragmented in a divalent cation buffer for 15 min. Conversion of fragmented RNA to the first strand of cDNA was done with random hexamer priming and reverse transcription. To synthesize second strand, RNA template was removed and dUTP in place of dTTP was incorporated. […] Every sample with a base quality score >Q30 (<1 error per 1000 bp) generated around 20-25 million reads. Transcript abundance from these RNA samples were quantified using Kallisto (12). […]

For another data set, the system named is PrP 5′ UTR. To be noted: SH-SY5Y cells.
Data set [2] concerns SNCA IRE dually labeled with Cy3 and Cy5. In words: FRET-based ASO-Bind-Map. To be noted: 1 μM, ASO 500 nM. The class given is binding, human. Here is the method: FRET-based ASO-Bind-Map. The SNCA IRE dually labeled with Cy3 and Cy5 dyes (100 nM) was folded by heating at 65° C. for 5 min in 1× Assay Buffer and slowly cooling to room temperature. BSA was added to the RNA solutions to a final concentration of 40 μg/mL followed by addition of compound. The mixtures were incubated at room temperature for 30 min. Fluorescence spectra were then acquired as a function of time (in kinetics mode) for 20 min using a Cary Eclips fluorescence spectrophotometer, with excitation and emission wavelengths of 532/10 nm and 668/5 nm, respectively. The ASO of interest was then added to a final concentration of 500 nM, and fluorescence spectra were acquired as described above.

In the next data set the test system is APP 5′ UTR. As to the kind of experiment: Luciferase reporter assay, APP 5′ UTR, SH-SY5Y cells. The class given is cell-based, human. In general terms: A reporter such as luciferase makes a cellular process visible.
In another data set the test system is SNCA 5′ UTR. In words: Luciferase reporter assay, SNCA 5′ UTR, SH-SY5Y cells. In kind it is cell-based, human.
A further data set concerns SH-SY5Y cells. As to the kind of experiment: LDH release cytotoxicity assay. The class given is cell-based, human. To be noted: 0.25, 0.5 and 1 μM, 48 h. As to the method: To assess if Synucleozid has a cytotoxic effect, SH-SY5Y cells were treated with 0.25, 0.5 and 1 μM for 48 h, and cell viability and cytotoxicity were measured using CellTiter 96 Aqueous One Solution Cell Proliferation Assay (MTS) and LDH release assay, respectively, according to the manufacturers' instructions.
On the technique in general: LDH in the medium is a marker of cell lysis.

Data set [3] concerns RNA-12 (fully base paired RNA). As to the kind of experiment: Competitive binding assay (2-AP), RNA-12.
Description: (§1) I and I0 are the observed fluorescence intensity in the presence and absence of 2-AP RNA. Δε is the difference between the fluorescence intensity in the absence and presence of infinite 2-AP RNA. […] EC50 was calculated from Eq. (1). […] The change of fluorescence intensity was fit to Eq. (2):
(§2) θ is the percentage of 2-AP RNA bound. [RNA] is the concentration of 2-AP RNA. EC50 is the EC50 of Synucleozid determined in the assay above. [Synucleozid] is the concentration of Synucleozid. Cc is the concentration of competitive RNA. Kd is competitive dissociation constant and A is a constant.
The test system of data set [4] is 2-AP labeled SNCA IRE RNA. As to the kind of experiment: 2-AP emission assay. In kind it is binding, human. To be noted: decrease of 2-AP emission. Here is the method:
2-AP emission assay. One μM 2-AP labeled SNCA IRE RNA was folded by heating to 65° C. for 5 min in 1× Assay Buffer and slowly cooling to room temperature. Bovine serum albumin (BSA) was then added to the RNA solution to 40 μg/mL. After adding Synucleozid to RNA solution at a final concentration […] of 100 μM, serial dilutions were prepared using 1× Assay Buffer including BSA supplemented with folded one μM 2-AP labeled SNCA IRE RNA. The solutions were incubated at room temperature for 30 min in dark and transferred into wells of black 384-well half area plates (Greiner). Fluorescence intensity was measured at room temperature with Tecan plate reader (Gain: 100, Integration time: 40 μs). Fluorescence excitation and emission wavelengths were set at 310 and 380 nm. The change of 2-AP fluorescence intensity as a function of Synucleozid concentration was fit to Eq. (1):
EC50 was calculated from Eq. (1).

Data set [5] has as its target unlabeled SNCA IRE RNA (RNA-0). As to the kind of experiment: Competitive binding assay (2-AP), RNA-0. To be noted: read-out: competitive Kd; RNA-0, native SNCA IRE.
Description: as §1, §2

With `N=C(N)c1ccc(Nc2ccc(-c3cc4ccc(C(=N)N)cc4[nH]3)cc2)cc1` [Synucleozid A], the “genes unchanged / genes detected” value in [1] was 19979/20034. Besides, the “genes unchanged, percentage” value in data set [1] stood at 99.7%. In addition, the “effect on translation of luciferase fused to PrP 5′ UTR” value in the data set on PrP 5′ UTR is “no effect”. The “reduction of ASO-induced unfolding (FRET)” value in data set [2] is “only able to reduce the extent of unfolding induced by ASO(1-10) and ASO(40-50)”. In the data set with APP 5′ UTR, the “effect on translation of luciferase fused to APP 5′ UTR” value was “no effect”. In addition, the figures for the “inhibition of translation, luciferase fused to SNCA 5′ UTR” value with SNCA 5′ UTR (250 nM) and in the data set with SNCA 5′ UTR (1 μM) were roughly 10% and roughly 40%, respectively. The “LDH release (cytotoxicity)” value with SH-SY5Y cells was “no toxicity”; in the data set on SH-SY5Y cells (listed as Synucleozid), “no effect”. Moreover, the “competitor RNA concentration needed for recovery of 2-AP emission” value in [3] is greater than 100 µM. In addition, the results for the half-maximal effective concentration (EC50) in [4] and in [4] (listed as Synucleozid) were 2720 ± 370 nM and 2700 ± 400 nM, respectively. For the same molecule, the Kd in data set [5] came out at 1500 ± 300 nM.
